Assay results taken from PubChem BioAssay AID192 (DTP/NCI, 2004).
Values joined by “and” are separate entries in the source; they are usually repeats but may differ in a detail not shown here. Equal values may be shown once. Inconclusive results and toxic doses are left out.

System: BDF1 mice, B16 melanoma ip, median survival T/C
Test: NCI In Vivo Anticancer Drug Screen. Data for tumor model B16 Melanoma (intraperitoneal) in B6D2F1 (BDF1) mice
Conditions: endpoint: median survival time, higher = longer survival
How it was run: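 Antitumor activity is assessed in mice bearing a transplanted tumor, with survival or tumor size compared against vehicle-dosed controls and expressed as T/C.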

[1] = dose: 12.5 mg/kg/injection, schedule: Q01DX009 (ip), vehicle: Klucel (hydroxypropylcellulose) (HPC)
[2] = dose: 25.0 mg/kg/injection, schedule: Q01DX009 (ip), vehicle: Klucel (hydroxypropylcellulose) (HPC)
[3] = dose: 50.0 mg/kg/injection, schedule: Q01DX009 (ip), vehicle: Klucel (hydroxypropylcellulose) (HPC)
[4] = dose: 100.0 mg/kg/injection, schedule: Q01DX009 (ip), vehicle: Klucel (hydroxypropylcellulose) (HPC)
[5] = dose: 200.0 mg/kg/injection, schedule: Q01DX009 (ip), vehicle: Klucel (hydroxypropylcellulose) (HPC)
[6] = dose: 1.0 mg/kg/injection, schedule: Q01DX009 (ip), vehicle: saline
[7] = dose: 2.0 mg/kg/injection, schedule: Q01DX009 (ip), vehicle: saline
[8] = dose: 50.0 mg/kg/injection, schedule: Q01DX009 (ip), vehicle: saline with Tween-80
[9] = dose: 100.0 mg/kg/injection, schedule: Q01DX009 (ip), vehicle: saline with Tween-80
[10] = dose: 3.12 mg/kg/injection, schedule: Q01DX009 (ip), vehicle: Klucel (hydroxypropylcellulose) (HPC)
[11] = dose: 6.25 mg/kg/injection, schedule: Q01DX009 (ip), vehicle: Klucel (hydroxypropylcellulose) (HPC)
[12] = dose: 100.0 mg/kg/injection, schedule: Q01DX009 (ip), vehicle: saline
[13] = dose: 12.5 mg/kg/injection, schedule: Q01DX009 (ip), vehicle: saline with Tween-80
[14] = dose: 25.0 mg/kg/injection, schedule: Q01DX009 (ip), vehicle: saline with Tween-80
[15] = dose: 100.0 mg/kg/injection, schedule: Q04DX003 (ip), vehicle: saline with Tween-80
[16] = dose: 200.0 mg/kg/injection, schedule: Q04DX003 (ip), vehicle: saline with Tween-80
[17] = dose: 25.0 mg/kg/injection, schedule: Q01DX009 (ip), vehicle: saline

With `CN1C2C=C(c3ccccc3)C(Br)C1CC2` (stereo not drawn) the T/C (dose: 20.0 mg/kg/injection, schedule: Q01DX009 (ip), vehicle: saline with Tween-80) was 98 % of control, the T/C (dose: 20.0 mg/kg/injection, schedule: Q04DX003 (ip), vehicle: saline with Tween-80) was 100 % of control and the T/C (dose: 40.0 mg/kg/injection, schedule: Q01DX009 (ip), vehicle: saline with Tween-80) was 91 % of control. For the same compound, the T/C (dose: 40.0 mg/kg/injection, schedule: Q04DX003 (ip), vehicle: saline with Tween-80) was 104 % of control and the T/C (dose: 80.0 mg/kg/injection, schedule: Q04DX003 (ip), vehicle: saline with Tween-80) was 88 % of control.

`c1ccc(CC2NCCc3c2[nH]c2ccccc32)cc1` (stereo not drawn) was tested, and the T/C [1] was 105 % of control, the T/C [2] was 91 % of control and 95 % of control and the T/C [3] was 86 % of control and 89 % of control. The T/C [4] was 86 % of control and the T/C [5] was 105 % of control.

For `CC1OC(O[C@H]2/C=C/C=C/C=C/C=C/C=C/C=C/C=C/[C@H](C)[C@@H](O)[C@@H](C)[C@H](C)OC(=O)C[C@H](O)C[C@H](O)CC[C@@H](O)[C@H](O)C[C@H](O)C[C@]3(O)C[C@H](O)[C@@H](C(=O)O)[C@H](C2)O3)C(O)C(N)C1O` (stereo partly drawn), the T/C [6] was 102 % of control and 124 % of control, the T/C [7] was 106 % of control and 113 % of control and the T/C (dose: 4.0 mg/kg/injection, schedule: Q01DX009 (ip), vehicle: saline) was 97 % of control and 116 % of control. The T/C (dose: 8.0 mg/kg/injection, schedule: Q01DX009 (ip), vehicle: saline) was 92 % of control and 102 % of control and the T/C (dose: 16.0 mg/kg/injection, schedule: Q01DX009 (ip), vehicle: saline) was 88 % of control and 98 % of control.

For `Cc1cccc(/C=N/OCCC(C)C)n1`, the T/C [8] was 107 % of control and the T/C [9] was 95 % of control.

In the case of `CC(C(=O)O)C(NC(=O)OCc1ccccc1)C(=O)O` (stereo not drawn), the T/C (dose: 100.0 mg/kg/injection, schedule: Q04DX003 (ip), vehicle: other) is reported as 97 % of control and the T/C (dose: 200.0 mg/kg/injection, schedule: Q04DX003 (ip), vehicle: other) is reported as 89 % of control.

For `COC(C(=O)C(O)C(C)O)C1Cc2cc3cc(OC4CC(OC(C)=O)C(OC5CC(O)C(OC)C(C)O5)C(C)O4)cc(O)c3c(O)c2C(=O)C1OC1CC(OC2CC(OC3CC(C)(O)C(OC(=O)C(C)C)C(C)O3)C(O)C(C)O2)C(O)C(C)O1` (stereo not drawn), the T/C (dose: 0.25 mg/kg/injection, schedule: Q01DX009 (ip), vehicle: saline with Tween-80) was 158 % of control, the T/C (dose: 0.5 mg/kg/injection, schedule: Q01DX009 (ip), vehicle: saline) was 154 % of control and 170 % of control and the T/C [6] was 173 % of control and 183 % of control. For the same compound, the T/C [7] was 173 % of control and 178 % of control.

`Cc1ccc(C(=O)[O][Hg][CH2]C2COC([CH2][Hg][O]C(=O)c3ccc(C)cc3)CO2)cc1` (stereo not drawn) was tested, and the T/C (dose: 0.09 mg/kg/injection, schedule: Q01DX009 (ip), vehicle: Klucel (hydroxypropylcellulose) (HPC)) was 92 % of control, the T/C (dose: 0.19 mg/kg/injection, schedule: Q01DX009 (ip), vehicle: Klucel (hydroxypropylcellulose) (HPC)) was 87 % of control and the T/C (dose: 0.39 mg/kg/injection, schedule: Q01DX009 (ip), vehicle: Klucel (hydroxypropylcellulose) (HPC)) was 99 % of control. For the same compound, the T/C (dose: 0.78 mg/kg/injection, schedule: Q01DX009 (ip), vehicle: Klucel (hydroxypropylcellulose) (HPC)) was 100 % of control, the T/C (dose: 1.56 mg/kg/injection, schedule: Q01DX009 (ip), vehicle: Klucel (hydroxypropylcellulose) (HPC)) was 100 % of control and the T/C [10] was 94 % of control and 106 % of control. The T/C [11] was 92 % of control and 107 % of control, the T/C [1] was 94 % of control and 99 % of control and the T/C [2] was 94 % of control and 96 % of control. For the same compound, the T/C [3] was 89 % of control and 94 % of control.

For `CC(=O)Oc1ccccc1C(=O)O`, the T/C (dose: 15.7 mg/kg/injection, schedule: Q01DX009 (ip), vehicle: saline with Tween-80) was 86 % of control, the T/C (dose: 31.3 mg/kg/injection, schedule: Q01DX009 (ip), vehicle: saline with Tween-80) was 102 % of control and the T/C (dose: 62.5 mg/kg/injection, schedule: Q01DX009 (ip), vehicle: saline with Tween-80) was 97 % of control.

`C=C(C)C(=O)OCC1CO1` (stereo not drawn) was tested, and the T/C [3] was 102 % of control, the T/C [4] was 100 % of control and the T/C [5] was 109 % of control.

With `CC[n+]1ccc(/C=C\c2c(Cl)cccc2Cl)cc1` the T/C [11] was 94 % of control, the T/C [1] was 88 % of control and the T/C [2] was 88 % of control.

`CC1CCC2(CC1)CCN(CCCN(C)C)CC2` was tested, and the T/C (dose: 50.0 mg/kg/injection, schedule: Q01DX009 (ip), vehicle: saline) was 99 % of control and the T/C [12] was 110 % of control.

For `C[n+]1ccc(Nc2ccc(NC(=O)c3ccc(Nc4cc[n+](C)c5ccc([N+](=O)[O-])cc45)cc3[N+](=O)[O-])cc2)cc1`, the T/C [13] was 95 % of control and the T/C [14] was 100 % of control.

For `O=C1NC(=S)S/C1=C\c1ccc(Cl)c(Cl)c1`, the T/C [4] was 88 % of control, the T/C (dose: 100.0 mg/kg/injection, schedule: Q04DX003 (ip), vehicle: Klucel (hydroxypropylcellulose) (HPC)) was 88 % of control and the T/C [5] was 97 % of control. For the same compound, the T/C (dose: 200.0 mg/kg/injection, schedule: Q04DX003 (ip), vehicle: Klucel (hydroxypropylcellulose) (HPC)) was 93 % of control, the T/C (dose: 400.0 mg/kg/injection, schedule: Q01DX009 (ip), vehicle: Klucel (hydroxypropylcellulose) (HPC)) was 97 % of control and the T/C (dose: 400.0 mg/kg/injection, schedule: Q04DX003 (ip), vehicle: Klucel (hydroxypropylcellulose) (HPC)) was 88 % of control.

For `Cc1cc(=O)[nH]c2ccc(-c3ccc4[nH]c(=O)cc(C)c4c3)cc12`, the T/C [4] was 96 % of control and the T/C [5] was 93 % of control.

In the case of `C#CCOCC(CCl)OC(N)=O` (stereo not drawn), the T/C (dose: 50.0 mg/kg/injection, schedule: Q04DX003 (ip), vehicle: saline with Tween-80) is reported as 111 % of control, the T/C [15] is reported as 105 % of control and the T/C [16] is reported as 108 % of control.

In the case of `O=C1C=C(N2CC2)c2ccccc2C1=O`, the T/C (dose: 5.0 mg/kg/injection, schedule: Q01DX009 (ip), vehicle: saline with Tween-80) is reported as 105 % of control and the T/C (dose: 10.0 mg/kg/injection, schedule: Q01DX009 (ip), vehicle: saline with Tween-80) is reported as 100 % of control.

In the case of `COc1ccc2nc3cc(Cl)ccc3c(NCCNCCNCCNc3c4ccc(Cl)cc4nc4ccc(OC)cc34)c2c1`, the T/C [10] is reported as 103 % of control, the T/C [11] is reported as 107 % of control and the T/C [1] is reported as 113 % of control. For the same compound, the T/C [13] was 164 % of control, the T/C (dose: 12.5 mg/kg/injection, schedule: Q01DX009 (ip), vehicle: saline) was 155 % of control and the T/C [2] was 113 % of control. The T/C [14] was 160 % of control, the T/C [17] was 150 % of control and the T/C [3] was 113 % of control. The T/C [8] was 119 % of control and the T/C [9] was 90 % of control.

In the case of `Cc1cc(NCCN(C(C)C)C(C)C)nc(/N=C(\N)Nc2ccc(Cl)c(C(F)(F)F)c2)n1`, the T/C (dose: 2.5 mg/kg/injection, schedule: Q04DX003 (ip), vehicle: Klucel (hydroxypropylcellulose) (HPC)) is reported as 101 % of control, the T/C (dose: 5.0 mg/kg/injection, schedule: Q01DX009 (ip), vehicle: Klucel (hydroxypropylcellulose) (HPC)) is reported as 92 % of control and the T/C (dose: 5.0 mg/kg/injection, schedule: Q04DX003 (ip), vehicle: Klucel (hydroxypropylcellulose) (HPC)) is reported as 93 % of control. The T/C (dose: 10.0 mg/kg/injection, schedule: Q01DX009 (ip), vehicle: Klucel (hydroxypropylcellulose) (HPC)) was 91 % of control, the T/C (dose: 10.0 mg/kg/injection, schedule: Q04DX003 (ip), vehicle: Klucel (hydroxypropylcellulose) (HPC)) was 102 % of control and the T/C (dose: 20.0 mg/kg/injection, schedule: Q04DX003 (ip), vehicle: Klucel (hydroxypropylcellulose) (HPC)) was 111 % of control.

`Nc1ccn(C2OC(CO)C(O)C2O)c(=O)n1` (stereo not drawn) was tested, and the T/C (dose: 6.25 mg/kg/injection, schedule: Q01DX009 (ip), vehicle: saline) was 120 % of control, the T/C [17] was 98 % of control and the T/C (dose: 80.0 mg/kg/injection, schedule: Q01DX009 (ip), vehicle: saline) was 71 % of control. The T/C [12] was 97 % of control, the T/C [15] was 100 % of control and the T/C (dose: 200.0 mg/kg/injection, schedule: Q01DX009 (ip), vehicle: saline) was 94 % of control. The T/C [16] was 92 % of control, the T/C (dose: 250.0 mg/kg/injection, schedule: Q04DX009 (ip), vehicle: saline) was 100 % of control and the T/C (dose: 400.0 mg/kg/injection, schedule: Q04DX003 (ip), vehicle: saline with Tween-80) was 92 % of control.

`N#CCc1ccc(Cl)c(Cl)c1` was tested, and the T/C (dose: 6.25 mg/kg/injection, schedule: Q01DX009 (ip), vehicle: saline with Tween-80) was 90 % of control, the T/C [13] was 88 % of control and the T/C [14] was 95 % of control.
